Assay results as given in patent US6761895B2, “Drug delivery system for averting pharmacokinetic drug interaction and method thereof” (priority 2000, dated 2004).

Experiments:
[1] = tested on: carriers on the epithelial cells of the small intestines; conditions: cefadroxil concomitantly administered with cefalexine; cited from earlier work
[2] = with administration of cimetidine, concomitant use with ketoconazole; cited from earlier work
[3] = tested on: CYP3A4; assay: Test Example 3: midazolam plasma AUC in dogs, alone or with concomitant diltiazem; conditions: male, beagle, dog, po, 4 mg/dog
Method: The aqueous solution for oral administration containing midazolam was orally administered (4 mg/dog) using a catheter for oral administration to a male beagle dogs (n=3) that had been fasted for approximately 20 hours.

[4] = tested on: CYP3A4; assay: Test Example 2: midazolam plasma AUC in dogs, alone or with concomitant conivaptan; conditions: male, beagle, dog, po, 4 mg/dog
Method: The following experiments were conducted using midazolam, which is metabolized CYP3A4, as a concomitant drug of conivaptan hydrochloride.
(§1) (1) Aqueous solution for oral administration containing midazolam: After preparing commercial midazolam injectable liquid (brand name: Dormicum® injection) to a concentration of 0.2 mg/ml with aqueous hydrochloric acid solution (pH of 3), HPMC2910 was added at 3-times the amount of midazolam to obtain a liquid for oral administration.
After administration, blood was collected from the veins of the front legs and the plasma concentration of midazolam was determined by the HPLC/UV method over time.
Thirty minutes after administration the aqueous solution for oral administration containing midazolam was orally administered using a catheter for oral administration (4 mg/dog). After midazolam administration, blood was collected from the veins of the front legs and the plasma concentration of midazolam was determined by the HPLC/UV method over time.
Thirty minutes after administration an aqueous solution for oral administration containing midazolam (4 mg/dog) was orally administered using a catheter for oral administration. After midazolam administration, blood was collected from the veins of the front legs and the plasma concentration of midazolam was determined by the HPLC/UV method over time.

[5] = tested on: CYP3A4; assay: Test Example 4: midazolam plasma AUC in dogs, alone or with concomitant ketoconazole; conditions: male, beagle, dog, po, 4 mg/dog
Method: as §1
The aqueous solution for oral administration containing midazolam was orally administered(4 mg/dog) using a catheter for oral administration to male beagle dogs (n=2) that had been fasted for approximately 20 hours.

For `CC1=C(C(=O)O)N2C(=O)[C@@H](NC(=O)[C@H](N)c3ccc(O)cc3)[C@H]2SC1` [cefadroxil], the “change in cefadroxil plasma concentration” value [1] is given as “reduction by approximately half”.

In the case of `CN/C(=N/CCSCc1nc[nH]c1C)NC#N` [cimetidine], the “gastric pH” value [2] is given as 3 to 5.

For `Cc1ncc2n1-c1ccc(Cl)cc1C(c1ccccc1F)=NC2` [midazolam], the AUC [3] was 55 ng·h/mL, the AUC [4] was 9 ± 6 ng·h/mL and the AUC [5] was 68.7 ng·h/mL.
